Where two headings read alike, the source gives them in different places.
Key:
Parameters in all cases: species or system E. coli
GGBP/H152C-BADAN = molecular target: T1, GGBP/H152C-BADAN (Escherichia coli, UniProt P0AEE5, H175C); experiment: Stopped-flow fluorescence kinetics of glucose binding; settings: glucose 0.5 mM, protein 0.6 μM, 23 °C
T1 construct: polyhistidine (C); BADAN (fluorescent dye covalently linked to Cys152); made in house; host or cells: E. coli BL21(DE3)
Text: The greater affinity of GGBP to glucose in the presence of low GdnHCl concentrations was also manifested by an increase in the binding rate of glucose to the protein in the presence of 0.1 M GdnHCl. It is known that, at high concentrations of one of the reactants, the reaction rate is predominately determined by the content of the substance with a low concentration (pseudo-first order conditions). Therefore, it can be expected that in solutions of high glucose concentration, the rate of the GGBP/H152C-glucose complex formation will be determined by the content of molecules with the semi-closed conformations in a protein ensemble. […]
It is expected that the decay curves should contain at least two rate constants characterizing the interconversion between the protein conformers in the absence of ligand and reflecting the glucose binding to GGBP/H152C [88]. […] Therefore, in practice, the recorded curves are approximated by monoexponential decay.
The kinetics of glucose binding to GGBP/H152C-BADAN in a timeframe from 0 to 0.04 s was measured using the MOS450spectrometerequipped with the stopped-flow mixing module SFM-4 (Bio-Logic, Seyssinet-Pariset, France). The excitation wavelength was 387 nm, the dye fluorescence signal was filtered by cut-off filter at 405 nm. […]

wtGGBP = molecular target: T2, wtGGBP (Escherichia coli, UniProt P0AEE5); experiment: Isothermal titration calorimetry of glucose binding (wild type); settings: read-out: Kd (ITC)
T2 construct: polyhistidine (C); made in house; host or cells: E. coli BL21(DE3)
Text: (§1) For this purpose, we used isothermal titration calorimetry (ITC) (Figure 7), since this approach allows for the determination of both the stoichiometric and thermodynamic binding parameters. The results of the ITC analysis generally corresponded to the data generated by the fluorescent-based analysis of the GGBP/H152C-BADAN interaction with glucose in solutions with sub-denaturing GdnHCl concentrations. […] The enthalpy contribution to the Gibbs free energy change caused by the interaction of studied proteins with glucose was principal in all solutions tested. This indicates the significant contribution of the hydrogen bonds between protein and glucose to the protein-ligand complex formation, [91] which is in excellent agreement with the X-ray structural data showing that the glucose binding to the GGBP active center is stabilized by 13 hydrogen bonds. […]
(§2) The parameters of the binding of mutant GGBP/H152C and wtGGBP with glucose in buffer, GdnHCl, and urea solutions were determined using the isothermal titration calorimeter TA Nano ITC (TA Instruments, New Castle, DE, USA) at the Resource Center of the Thermogravimetric and Calorimetric Research (Research Park of St. Petersburg State University). […]

GGBP/H152C = molecular target: T3, GGBP/H152C (Escherichia coli, UniProt P0AEE5, H175C); experiment: Isothermal titration calorimetry of glucose binding (mutant); settings: Kd (ITC)
T3 construct: polyhistidine (C); made in house; host or cells: E. coli BL21(DE3)
Text: as §1, §2

[1] = solution without denaturants (black)

T2 sequence (P0AEE5 24-332 limits assumed): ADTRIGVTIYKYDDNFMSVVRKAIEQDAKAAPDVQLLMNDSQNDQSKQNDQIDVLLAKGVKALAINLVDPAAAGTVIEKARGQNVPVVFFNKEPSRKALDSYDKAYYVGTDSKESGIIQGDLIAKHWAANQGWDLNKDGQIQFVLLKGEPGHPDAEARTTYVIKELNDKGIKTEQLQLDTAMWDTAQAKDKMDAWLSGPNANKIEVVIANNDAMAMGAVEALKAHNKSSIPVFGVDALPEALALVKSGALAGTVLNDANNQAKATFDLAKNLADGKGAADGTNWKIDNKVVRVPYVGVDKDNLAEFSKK
T3 sequence (P0AEE5 24-332 H175C limits assumed): as the sequence (P0AEE5 24-332 limits assumed) above, with H152C counted along it
T1 sequence (P0AEE5 24-332 H175C limits assumed): as the sequence (P0AEE5 24-332 limits assumed) above, with H152C counted along it

Structure (SMILES): OC[C@H]1OC(O)[C@H](O)[C@@H](O)[C@@H]1O (stereo partly drawn) [glucose, D-Glucose]
- k (rate of GGBP/H152C-glucose complex formation) (GGBP/H152C-BADAN; in 0.1 M GdnHCl): 508 s⁻¹
- k (rate of GGBP/H152C-glucose complex formation) (GGBP/H152C-BADAN; without denaturants): 465 s⁻¹
- Kd (wtGGBP; 0.1 M GdnHCl (red)): 280 ± 60 nM
- Kd (wtGGBP; [1]): 310 nM
- Kd (GGBP/H152C; 0.1 M GdnHCl (red)): 2290 ± 80 nM
- Kd (GGBP/H152C; [1]): 3050 nM
